# Results: ChEMBL document CHEMBL1143380, “N-[6-amino-2-(heteroaryl)pyrimidin-4-yl]acetamides as A2A receptor antagonists with improved drug like properties and in vivo efficacy” (J Med Chem, 2009)
# How the values were obtained:
# [1] = biological target: T1, Adenosine receptor A2a (Homo sapiens, UniProt P29274); assay: Displacement of [3H]ZM241385 from human adenosine A2A receptor expressed in HEK293 cells; type: cell-based
# [2] = Lipophilicity, log D of the compound; type: physicochemical; conditions: octanol/water
# [3] = Drug level in rat brain at 10 mg/kg, po after 1 hr; type: ADME, organism-based; parameters: dose 10 mg/kg, route oral; conditions: read-out: Drug uptake
# [4] = biological target: T2, Adenosine receptor A2b (Homo sapiens, UniProt P29275); assay: Inhibition of human adenosine A2B receptor
# T2 sequence (P29275 whole entry): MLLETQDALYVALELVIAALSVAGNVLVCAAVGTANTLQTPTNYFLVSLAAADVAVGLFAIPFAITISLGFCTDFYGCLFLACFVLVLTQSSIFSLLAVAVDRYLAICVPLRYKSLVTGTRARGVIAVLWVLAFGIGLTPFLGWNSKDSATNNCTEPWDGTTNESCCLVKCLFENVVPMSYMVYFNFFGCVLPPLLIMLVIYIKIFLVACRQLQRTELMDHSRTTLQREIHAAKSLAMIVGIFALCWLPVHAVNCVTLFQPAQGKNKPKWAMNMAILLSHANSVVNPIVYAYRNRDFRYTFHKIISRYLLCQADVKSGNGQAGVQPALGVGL
# [5] = biological target: T3, Adenosine receptor A3 (Homo sapiens, UniProt P0DMS8); assay: Inhibition of human adenosine A3 receptor
# T3 sequence (P0DMS8 whole entry): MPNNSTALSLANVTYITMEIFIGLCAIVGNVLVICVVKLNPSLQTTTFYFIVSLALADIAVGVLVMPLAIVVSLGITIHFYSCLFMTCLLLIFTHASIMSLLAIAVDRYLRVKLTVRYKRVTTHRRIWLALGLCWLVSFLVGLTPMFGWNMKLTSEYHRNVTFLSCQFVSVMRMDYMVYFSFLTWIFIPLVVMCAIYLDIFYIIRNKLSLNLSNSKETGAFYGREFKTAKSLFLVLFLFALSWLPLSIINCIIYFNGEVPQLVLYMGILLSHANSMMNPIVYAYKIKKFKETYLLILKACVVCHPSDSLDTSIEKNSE
# [6] = Ratio of drug level in brain to plasma in rat at 10 mg/kg, po after 1 hr; type: ADME, organism-based; parameters: dose 10 mg/kg, route oral; conditions: brain and plasma, read-out: BPR
# [7] = Ratio of drug level in brain to plasma in rat at 10 mg/kg, po after 2 hrs; type: ADME, organism-based; parameters: dose 10 mg/kg, route oral; conditions: brain and plasma
# [8] = Plasma concentration in rat at 30 mg/kg, po after 2 hrs; type: ADME, organism-based; parameters: dose 30 mg/kg, route oral
# [9] = Tmax in rat at 10 mg/kg, po; type: ADME, organism-based; parameters: dose 10 mg/kg, route oral; conditions: in vivo
# [10] = Drug level in rat brain at 3 mg/kg, po after 2 hrs; type: ADME, organism-based; parameters: dose 3 mg/kg, route oral; conditions: read-out: Drug uptake
# [11] = biological target: T1, Adenosine receptor A2a; assay: Antagonist activity at human adenosine A2A receptor assessed as inhibition of CGS-21680-stimulated cAMP production; type: functional
# [12] = Permeability across human Caco-2 cells; type: ADME, cell-based; conditions: read-out: permeability
# [13] = system: Rattus norvegicus; assay: Inhibition of haloperidol-induced catalepsy in rat assessed as reduction in descent latency at 30 mg/kg, po after 2 hrs; type: organism-based; parameters: dose 30 mg/kg, route oral; conditions: in vivo
# [14] = Plasma concentration in rat at 3 mg/kg, po after 2 hrs; type: ADME, organism-based; parameters: dose 3 mg/kg, route oral
# [15] = biological target: T4, Cytochrome P450 1A2 (Homo sapiens, UniProt P05177); assay: Inhibition of CYP1A2; type: ADME
# T4 sequence (P05177 whole entry): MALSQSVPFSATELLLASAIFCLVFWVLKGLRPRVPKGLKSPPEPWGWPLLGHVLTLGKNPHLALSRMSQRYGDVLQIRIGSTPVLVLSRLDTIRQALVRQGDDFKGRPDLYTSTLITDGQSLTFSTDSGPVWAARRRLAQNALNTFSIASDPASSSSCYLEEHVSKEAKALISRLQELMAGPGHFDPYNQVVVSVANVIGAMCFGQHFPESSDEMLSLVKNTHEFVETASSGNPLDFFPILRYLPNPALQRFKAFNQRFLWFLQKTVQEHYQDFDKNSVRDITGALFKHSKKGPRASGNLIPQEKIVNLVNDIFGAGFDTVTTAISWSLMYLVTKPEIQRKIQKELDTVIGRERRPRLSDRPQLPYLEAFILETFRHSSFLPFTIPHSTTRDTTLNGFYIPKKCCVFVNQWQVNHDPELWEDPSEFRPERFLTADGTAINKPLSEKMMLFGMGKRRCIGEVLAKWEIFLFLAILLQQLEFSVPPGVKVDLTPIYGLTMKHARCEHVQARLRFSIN
# [16] = Drug level in rat brain at 10 mg/kg, po after 4 hrs; type: ADME, organism-based; parameters: dose 10 mg/kg, route oral; conditions: read-out: Drug uptake
# [17] = Ratio of drug level in brain to plasma in rat at 30 mg/kg, po after 2 hrs; type: ADME, organism-based; parameters: dose 30 mg/kg, route oral; conditions: brain and plasma
# [18] = Drug level in rat brain at 30 mg/kg, po after 2 hrs; type: ADME, organism-based; parameters: dose 30 mg/kg, route oral; conditions: read-out: Drug uptake
# [19] = biological target: Cytochrome P450 2C19 (Homo sapiens, UniProt P33261); assay: Inhibition of CYP2C19; type: ADME
# Sequence of Cytochrome P450 2C19 (P33261 whole entry): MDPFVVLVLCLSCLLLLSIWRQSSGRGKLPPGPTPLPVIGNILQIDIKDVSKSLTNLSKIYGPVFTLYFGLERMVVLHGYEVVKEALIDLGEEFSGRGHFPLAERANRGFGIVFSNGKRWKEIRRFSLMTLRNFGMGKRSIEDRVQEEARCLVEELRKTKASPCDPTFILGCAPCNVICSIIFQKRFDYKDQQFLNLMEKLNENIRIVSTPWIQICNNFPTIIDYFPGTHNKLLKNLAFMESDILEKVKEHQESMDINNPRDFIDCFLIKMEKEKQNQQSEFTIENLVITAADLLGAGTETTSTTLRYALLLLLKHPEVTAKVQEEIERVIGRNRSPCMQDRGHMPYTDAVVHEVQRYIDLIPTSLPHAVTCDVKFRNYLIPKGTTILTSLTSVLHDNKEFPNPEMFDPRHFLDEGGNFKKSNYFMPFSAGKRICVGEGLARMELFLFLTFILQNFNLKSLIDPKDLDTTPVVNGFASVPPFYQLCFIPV
# [20] = biological target: hERG (KCNH2) (Homo sapiens, UniProt Q12809); assay: Inhibition of human ERG at 10 uM by patch clamp technique
# Sequence of hERG (KCNH2) (Q12809 whole entry): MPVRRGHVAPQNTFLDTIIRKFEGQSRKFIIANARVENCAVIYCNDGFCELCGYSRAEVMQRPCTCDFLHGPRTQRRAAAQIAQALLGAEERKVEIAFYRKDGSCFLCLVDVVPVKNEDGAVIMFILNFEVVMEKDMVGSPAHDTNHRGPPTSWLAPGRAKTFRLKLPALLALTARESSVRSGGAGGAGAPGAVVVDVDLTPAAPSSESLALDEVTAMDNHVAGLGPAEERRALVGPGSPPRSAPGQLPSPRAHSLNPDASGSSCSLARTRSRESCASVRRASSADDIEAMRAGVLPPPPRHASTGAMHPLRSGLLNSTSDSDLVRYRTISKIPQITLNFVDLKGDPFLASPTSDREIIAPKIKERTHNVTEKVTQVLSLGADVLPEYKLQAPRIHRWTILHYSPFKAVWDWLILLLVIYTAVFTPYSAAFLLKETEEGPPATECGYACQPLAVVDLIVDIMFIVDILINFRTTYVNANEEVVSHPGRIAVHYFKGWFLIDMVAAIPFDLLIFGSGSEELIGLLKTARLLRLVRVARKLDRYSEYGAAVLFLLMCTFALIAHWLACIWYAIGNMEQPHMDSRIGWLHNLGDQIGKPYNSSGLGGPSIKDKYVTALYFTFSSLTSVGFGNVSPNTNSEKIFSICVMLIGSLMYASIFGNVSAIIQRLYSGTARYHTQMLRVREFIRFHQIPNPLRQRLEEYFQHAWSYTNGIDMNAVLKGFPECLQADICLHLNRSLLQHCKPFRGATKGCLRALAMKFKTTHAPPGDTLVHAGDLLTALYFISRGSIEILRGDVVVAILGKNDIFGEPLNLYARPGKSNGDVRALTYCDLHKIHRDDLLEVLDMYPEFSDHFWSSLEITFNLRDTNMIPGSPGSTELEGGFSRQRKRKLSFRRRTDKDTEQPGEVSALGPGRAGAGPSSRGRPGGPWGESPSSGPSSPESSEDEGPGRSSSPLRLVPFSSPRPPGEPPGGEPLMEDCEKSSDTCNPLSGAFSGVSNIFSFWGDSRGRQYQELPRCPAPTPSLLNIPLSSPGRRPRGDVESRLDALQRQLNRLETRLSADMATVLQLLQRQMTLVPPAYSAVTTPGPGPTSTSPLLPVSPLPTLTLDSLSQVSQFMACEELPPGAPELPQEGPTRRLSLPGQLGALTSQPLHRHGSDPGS
# [21] = biological target: T5, Adenosine receptor A1 (Homo sapiens, UniProt P30542); assay: Displacement of [3H]DPCPX from human adenosine A1 receptor expressed in HEK293 cells; type: cell-based
# T5 sequence (P30542 whole entry): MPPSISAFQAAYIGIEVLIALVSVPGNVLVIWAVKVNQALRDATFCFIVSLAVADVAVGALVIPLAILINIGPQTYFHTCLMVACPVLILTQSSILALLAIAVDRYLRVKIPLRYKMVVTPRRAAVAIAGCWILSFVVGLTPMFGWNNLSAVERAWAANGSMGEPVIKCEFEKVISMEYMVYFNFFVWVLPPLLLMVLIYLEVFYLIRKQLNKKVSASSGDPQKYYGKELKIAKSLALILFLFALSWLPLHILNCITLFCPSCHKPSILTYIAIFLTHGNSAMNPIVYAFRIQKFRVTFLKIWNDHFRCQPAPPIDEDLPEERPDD
# [22] = Drug level in rat brain at 10 mg/kg, po after 2 hrs; type: ADME, organism-based; parameters: dose 10 mg/kg, route oral; conditions: read-out: Drug uptake
# [23] = system: Rattus norvegicus; assay: Inhibition of haloperidol-induced catalepsy in rat assessed as reduction in descent latency at 10 mg/kg, po after 2 hrs; type: organism-based; parameters: dose 10 mg/kg, route oral; conditions: in vivo
# [24] = Ratio of drug level in brain to plasma in rat at 10 mg/kg, po after 4 hrs; type: ADME, organism-based; parameters: dose 10 mg/kg, route oral; conditions: brain and plasma, read-out: BPR
# [25] = biological target: Cytochrome P450 3A4 (Homo sapiens, UniProt P08684); assay: Inhibition of CYP3A4; type: ADME
# Sequence of Cytochrome P450 3A4 (P08684 whole entry): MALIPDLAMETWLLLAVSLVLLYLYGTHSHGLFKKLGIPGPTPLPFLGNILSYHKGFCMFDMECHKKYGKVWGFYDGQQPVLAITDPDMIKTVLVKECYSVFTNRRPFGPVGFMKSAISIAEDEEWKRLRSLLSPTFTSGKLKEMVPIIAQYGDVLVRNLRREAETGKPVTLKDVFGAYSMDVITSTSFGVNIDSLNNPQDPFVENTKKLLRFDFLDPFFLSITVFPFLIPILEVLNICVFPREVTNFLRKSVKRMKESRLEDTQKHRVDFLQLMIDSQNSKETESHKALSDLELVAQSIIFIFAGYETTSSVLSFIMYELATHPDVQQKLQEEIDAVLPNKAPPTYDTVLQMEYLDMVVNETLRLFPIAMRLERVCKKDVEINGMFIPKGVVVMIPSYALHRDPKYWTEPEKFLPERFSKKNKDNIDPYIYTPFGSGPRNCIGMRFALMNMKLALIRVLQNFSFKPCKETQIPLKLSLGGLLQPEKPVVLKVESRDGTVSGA
# [26] = biological target: Cytochrome P450 2C9 (Homo sapiens, UniProt P11712); assay: Inhibition of CYP2C9; type: ADME
# Sequence of Cytochrome P450 2C9 (P11712 whole entry): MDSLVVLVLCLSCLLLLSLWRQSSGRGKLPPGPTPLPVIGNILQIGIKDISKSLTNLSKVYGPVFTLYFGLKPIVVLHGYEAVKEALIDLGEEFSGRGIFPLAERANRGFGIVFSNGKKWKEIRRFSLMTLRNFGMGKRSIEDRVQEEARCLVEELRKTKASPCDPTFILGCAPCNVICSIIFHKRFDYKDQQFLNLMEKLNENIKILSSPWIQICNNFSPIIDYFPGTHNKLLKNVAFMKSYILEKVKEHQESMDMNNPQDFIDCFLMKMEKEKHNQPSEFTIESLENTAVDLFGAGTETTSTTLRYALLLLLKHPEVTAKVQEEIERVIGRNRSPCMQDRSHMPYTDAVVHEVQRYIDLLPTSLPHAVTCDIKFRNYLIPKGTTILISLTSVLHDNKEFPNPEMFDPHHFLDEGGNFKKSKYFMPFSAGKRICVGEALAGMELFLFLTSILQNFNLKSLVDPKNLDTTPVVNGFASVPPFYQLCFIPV
# [27] = Ratio of drug level in brain to plasma in rat at 3 mg/kg, po after 2 hrs; type: ADME, organism-based; parameters: dose 3 mg/kg, route oral; conditions: brain and plasma
# [28] = Plasma concentration in rat at 10 mg/kg, po after 4 hrs; type: ADME, organism-based; parameters: dose 10 mg/kg, route oral
# [29] = system: Caco-2; assay: Ratio of permeability from apical to basolateral side over basolateral to apical side in human Caco-2 cells; type: ADME, cell-based
# [30] = biological target: Cytochrome P450 2D6 (Homo sapiens, UniProt P10635); assay: Inhibition of CYP2D6; type: ADME
# Sequence of Cytochrome P450 2D6 (P10635 whole entry): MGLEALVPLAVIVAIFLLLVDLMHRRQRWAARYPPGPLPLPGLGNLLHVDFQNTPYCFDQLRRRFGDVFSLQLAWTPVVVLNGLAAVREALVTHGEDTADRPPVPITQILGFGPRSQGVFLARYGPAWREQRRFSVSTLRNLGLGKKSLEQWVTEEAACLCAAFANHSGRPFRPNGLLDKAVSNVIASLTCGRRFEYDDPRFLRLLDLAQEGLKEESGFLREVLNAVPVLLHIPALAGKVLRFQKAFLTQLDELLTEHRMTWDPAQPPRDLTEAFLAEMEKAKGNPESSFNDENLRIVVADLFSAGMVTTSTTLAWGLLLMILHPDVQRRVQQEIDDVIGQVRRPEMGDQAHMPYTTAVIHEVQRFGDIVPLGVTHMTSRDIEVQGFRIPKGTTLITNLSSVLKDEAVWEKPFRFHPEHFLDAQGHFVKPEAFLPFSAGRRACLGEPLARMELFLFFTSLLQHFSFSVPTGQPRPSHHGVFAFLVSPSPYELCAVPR
# [31] = biological target: Adenosine receptor A2a (Rattus norvegicus, UniProt P30543); assay: Displacement of [3H]ZM241385 from rat adenosine A2A receptor expressed in CHO cells; type: cell-based
# Sequence of Adenosine receptor A2a (Rattus norvegicus, UniProt P30543) (P30543 whole entry): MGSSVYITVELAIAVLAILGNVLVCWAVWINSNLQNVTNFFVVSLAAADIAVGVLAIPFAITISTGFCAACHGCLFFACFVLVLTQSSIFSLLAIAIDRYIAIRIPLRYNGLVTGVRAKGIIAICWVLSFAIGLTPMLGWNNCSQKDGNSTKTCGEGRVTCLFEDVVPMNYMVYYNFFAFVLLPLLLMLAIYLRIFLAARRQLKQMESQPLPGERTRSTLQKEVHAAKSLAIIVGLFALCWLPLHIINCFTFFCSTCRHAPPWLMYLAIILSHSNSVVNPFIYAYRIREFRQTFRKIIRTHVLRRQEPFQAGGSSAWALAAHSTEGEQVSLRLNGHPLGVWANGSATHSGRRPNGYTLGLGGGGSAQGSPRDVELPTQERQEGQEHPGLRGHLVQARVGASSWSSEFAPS
# [32] = system: Rattus norvegicus; assay: Potentiation of […]-induced rotational behavior in unilateral 6-hydroxydopamine lesioned po dosed rat after 5 hrs; type: ADME, organism-based; conditions: in vivo
# [33] = Plasma concentration in rat at 10 mg/kg, po after 1 hr; type: ADME, organism-based; parameters: dose 10 mg/kg, route oral
# [34] = Solubility at pH 7.4; type: physicochemical; conditions: buffer
# [35] = Plasma concentration in rat at 10 mg/kg, po after 2 hrs; type: ADME, organism-based; parameters: dose 10 mg/kg, route oral
# T1 sequence (P29274 whole entry): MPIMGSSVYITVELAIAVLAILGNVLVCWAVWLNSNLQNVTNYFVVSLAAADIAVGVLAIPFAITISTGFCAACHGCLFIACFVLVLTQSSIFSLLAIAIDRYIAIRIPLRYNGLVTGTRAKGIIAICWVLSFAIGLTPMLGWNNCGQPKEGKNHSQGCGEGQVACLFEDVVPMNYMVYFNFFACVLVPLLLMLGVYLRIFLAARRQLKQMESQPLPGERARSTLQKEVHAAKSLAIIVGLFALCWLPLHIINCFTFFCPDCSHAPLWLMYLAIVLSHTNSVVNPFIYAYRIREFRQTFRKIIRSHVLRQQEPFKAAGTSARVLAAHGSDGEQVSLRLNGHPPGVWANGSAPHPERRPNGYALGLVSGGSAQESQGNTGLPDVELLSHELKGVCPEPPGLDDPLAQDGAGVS
smiles,measurement,setting,value
COC[C@H]1CCCN1c1cc(NC(C)=O)nc(-n2nc(C)cc2C)n1,Ki,[1],4.7 nM
same,logD,[2],2.2
same,concentration at 1 h,[3],863 ng/g
same,Ki,[4],145 nM
same,Ki,[5],19 nM
same,Kp at 1 h,[6],0.51
same,Kp at 2 h,[7],0.46
same,concentration at 2 h,[8],4640 ng/mL
same,Tmax,[9],54 min
same,concentration at 2 h,[10],34 ng/g
same,IC50,[11],85 nM
same,Papp,[12],70 ×10⁻⁶ cm/s
same,Activity,[13],Active
same,concentration at 2 h,[14],98 ng/mL
same,IC50,[15],11000 nM
same,concentration at 4 h,[16],116 ng/g
same,Kp at 2 h,[17],0.45
same,concentration at 2 h,[18],2020 ng/g
same,IC50,[19],> 50000 nM
same,inhibition at 10 µM,[20],19%
same,Ki,[21],162 nM
same,concentration at 2 h,[22],488 ng/g
same,Activity,[23],Active
same,Kp at 4 h,[24],0.33
same,IC50,[25],> 50000 nM
same,IC50,[26],> 50000 nM
same,Kp at 2 h,[27],0.37
same,concentration at 4 h,[28],333 ng/mL
same,Ratio,[29],0.7
same,IC50,[30],> 50000 nM
same,Ki,[31],48 nM
same,Activity,[32],Dose-dependent effect
same,concentration at 1 h,[33],1600 ng/mL
same,solubility,[34],1000 µg/mL
same,concentration at 2 h,[35],1060 ng/mL
